Results as given in ChEMBL document CHEMBL4304808, “PROTAC Degradation of IRAK4 for the Treatment of Neurodegenerative and Cardiovascular Diseases” (ACS Med Chem Lett, 2019).

How the values were obtained:
[1] = target: T1, Protein cereblon/Interleukin-1 receptor-associated kinase 4 (Homo sapiens, UniProt Q9NWZ3+Q96SW2); assay: Protac activity at E3 ubiquitin ligase/IRAK4 in human MCF7 cells assessed as IRAK4 degradation after 24 hrs by Western blot analysis relative to control; format: cell-based
Target sequence in this assay (Q96SW2 whole entry, looked up, one chain of several): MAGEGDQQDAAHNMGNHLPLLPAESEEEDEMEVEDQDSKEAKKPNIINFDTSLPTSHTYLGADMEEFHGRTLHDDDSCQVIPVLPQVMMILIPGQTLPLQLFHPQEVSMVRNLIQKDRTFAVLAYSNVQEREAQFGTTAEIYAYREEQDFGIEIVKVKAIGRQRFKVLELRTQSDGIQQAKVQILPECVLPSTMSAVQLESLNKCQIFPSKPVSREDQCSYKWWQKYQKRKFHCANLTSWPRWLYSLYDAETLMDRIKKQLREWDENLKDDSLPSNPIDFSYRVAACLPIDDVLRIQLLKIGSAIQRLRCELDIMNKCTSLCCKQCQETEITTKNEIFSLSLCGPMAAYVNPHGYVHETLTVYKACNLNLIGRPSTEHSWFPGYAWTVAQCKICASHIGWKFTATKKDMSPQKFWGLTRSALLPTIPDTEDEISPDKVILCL

[2] = target: T1, Protein cereblon/Interleukin-1 receptor-associated kinase 4; assay: Protac activity at E3 ubiquitin ligase/IRAK4 in human MCF7 cells assessed as IRAK4 degradation after 24 hrs by Western blot analysis; format: cell-based
Target sequence in this assay (Q96SW2 whole entry, one chain of several): as the sequence (Q96SW2 whole entry, looked up, one chain of several) above

[3] = target: T2, Interleukin-1 receptor-associated kinase 4 (Homo sapiens, UniProt Q9NWZ3); assay: Inhibition of N-terminal GST-tagged human IRAK4 (2 to end residues) expressed in baculovirus infected Sf9 cells using Ser/Thr 7 peptide as substrate in presence of ATP after 1 hr by Z'-LYTE assay
T2 sequence (Q9NWZ3 whole entry): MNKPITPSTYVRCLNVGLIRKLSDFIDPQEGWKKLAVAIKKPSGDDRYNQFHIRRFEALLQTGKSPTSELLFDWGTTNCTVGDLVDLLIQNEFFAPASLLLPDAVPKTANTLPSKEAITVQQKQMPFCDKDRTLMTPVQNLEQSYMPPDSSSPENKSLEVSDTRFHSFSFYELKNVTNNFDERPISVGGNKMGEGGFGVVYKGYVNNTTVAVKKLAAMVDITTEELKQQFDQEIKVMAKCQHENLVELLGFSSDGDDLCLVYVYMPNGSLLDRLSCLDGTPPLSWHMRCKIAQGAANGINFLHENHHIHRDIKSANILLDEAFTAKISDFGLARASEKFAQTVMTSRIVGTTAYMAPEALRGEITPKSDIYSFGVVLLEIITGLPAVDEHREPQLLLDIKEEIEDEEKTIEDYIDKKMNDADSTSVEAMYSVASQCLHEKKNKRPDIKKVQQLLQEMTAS

Row | SMILES | Emax [1] | DC50 [2] | IC50 [3]
1 | O=C1CCC(N2C(=O)c3ccc(OCCOCCOCCN4CCN(Cc5ccc6c(c5)nc(NC(=O)c5cccc(C(F)(F)F)c5)n6[C@H]5CC[C@@H](CO)CC5)CC4)cc3C2=O)C(=O)N1 (stereo not given in full) | > 70% | < 30 nM | < 30 nM
2 | O=C1CCC(N2C(=O)c3ccc(N4CCC(CN5CCN(Cc6ccc7c(c6)nc(NC(=O)c6cccc(C(F)(F)F)c6)n7[C@H]6CC[C@@H](CO)CC6)CC5)CC4)cc3C2=O)C(=O)N1 (stereo not given in full) | > 70% | < 30 nM | < 30 nM
3 | COc1cc2nn(C3CCN(CCOCCOc4ccc5c(c4)CN(C4CCC(=O)NC4=O)C5=O)CC3)cc2cc1NC(=O)c1cccc(C(F)(F)F)n1 (stereo not given) | > 50% | < 30 nM | < 30 nM

Second part, the compound after the results:

Row | Emax [1] | DC50 [2] | IC50 [3] | SMILES
4 | > 70% | 30 to 100 nM | < 30 nM | O=C1CCC(N2C(=O)c3ccc(OC4CCC(CN5CCN(Cc6ccc7c(c6)nc(NC(=O)c6cccc(C(F)(F)F)c6)n7[C@H]6CC[C@@H](CO)CC6)CC5)CC4)cc3C2=O)C(=O)N1 (stereo not given in full)
5 | > 50% | < 30 nM | < 30 nM | COc1cc2nn(C3CCN(CCOCCOc4ccc5c(c4)C(=O)N(C4CCC(=O)NC4=O)C5=O)CC3)cc2cc1NC(=O)c1cccc(C(F)(F)F)n1 (stereo not given)
